Experimental data reported in patent publication US20240318196A1, “BRASSICA EVENT MON94100 AND METHODS OF USE THEREOF” (Monsanto Technology LLC, priority 2018, published 2024).

Assays:
[1] = tested on: non-transgenic plants of the same germplasm; test: Volunteer control: greenhouse plant injury rate after synthetic auxin herbicide spray; type: in vivo, Brassica; conditions: for Plant Injury Rates (%) After Herbicide Spray, Control: sprayed at V3 stage, 9 days after treatment, greenhouse
Description: (§1) Plants comprising Brassica Event MON94100 and non-transgenic plants of the same germplasm as a control were grown in a greenhouse in a randomized complete block design. Plants were sprayed at V3 stage with one of four synthetic auxin herbicides: dicamba (as XtendiMax®), 2,4-D amine 4 (dimethylamine salt of 2,4-dichlorophenoxyacetic acid), bromoxynil (3,5-dibromo-4-hydroxybenzonitrile as Buctril®), and MCPA amine (4-chloro-2-methylphenoxy acetic acid) in a randomized pattern. Plant injury rate was taken at 9 days after treatment.

[2] = tested on: Plants comprising Brassica Event MON94100; test: as above; type: in vivo; conditions: for Plant Injury Rates (%) After Herbicide Spray, MON94100: sprayed at V3 stage, 9 days after treatment, greenhouse
Description: as §1

CNC.O=C(O)COc1ccc(Cl)cc1Cl [2,4-D amine, dimethylamine salt of 2,4-dichlorophenoxyacetic acid]
Plant Injury Rates (%) After Herbicide Spray, Control ([1]; 1× rate): 73.0%
Plant Injury Rates (%) After Herbicide Spray, Control ([1]; 2× rate): 82.0%
Plant Injury Rates (%) After Herbicide Spray, MON94100 ([2]; 1× rate): 74.5%
Plant Injury Rates (%) After Herbicide Spray, MON94100 ([2]; 2× rate): 83.5%

COc1c(Cl)ccc(Cl)c1C(=O)O [dicamba, 3,6-dichloro-2-methoxybenzoic acid]
Plant Injury Rates (%) After Herbicide Spray, Control ([1]; 1× rate): 21.3%
Plant injury rate ([1]; commercial rate (1X), sprayed at V3, 9 days after treatment, control plants): 21.3%
Plant Injury Rates (%) After Herbicide Spray, MON94100 ([2]; 1× rate): 0.0%
Plant injury rate ([2]; commercial rate (1X), sprayed at V3, 9 days after treatment, plants comprising Brassica Event MON94100): no injury

N#Cc1cc(Br)c(O)c(Br)c1 [bromoxynil, 3,5-dibromo-4-hydroxybenzonitrile]
Plant Injury Rates (%) After Herbicide Spray, Control ([1]; 1× rate): 83.3%
Plant Injury Rates (%) After Herbicide Spray, Control ([1]; 2× rate): 90.6%
Plant Injury Rates (%) After Herbicide Spray, MON94100 ([2]; 1× rate): 80.5%
Plant Injury Rates (%) After Herbicide Spray, MON94100 ([2]; 2× rate): 90.3%

Cc1cc(Cl)ccc1OCC(=O)O [MCPA, 4-chloro-2-methylphenoxy acetic acid]
Plant Injury Rates (%) After Herbicide Spray, Control ([1]; 1× rate): 71.5%
Plant Injury Rates (%) After Herbicide Spray, Control ([1]; 2× rate): 85.0%
Plant Injury Rates (%) After Herbicide Spray, MON94100 ([2]; 1× rate): 73.0%
Plant Injury Rates (%) After Herbicide Spray, MON94100 ([2]; 2× rate): 86.5%
